Columns and labels:
Type in all cases: in vitro ADME
[1] = target: T1, CYP2B6 (Homo sapiens, UniProt P20813); assay: Inhibition of recombinant CYP2B6 (probe bupropion); conditions: recombinant isozyme; mean ± SD of triplicate; unit not given (IC50 classes in μM); read-out: IC50 towards CYP2B6
T1 sequence (P20813 1-491): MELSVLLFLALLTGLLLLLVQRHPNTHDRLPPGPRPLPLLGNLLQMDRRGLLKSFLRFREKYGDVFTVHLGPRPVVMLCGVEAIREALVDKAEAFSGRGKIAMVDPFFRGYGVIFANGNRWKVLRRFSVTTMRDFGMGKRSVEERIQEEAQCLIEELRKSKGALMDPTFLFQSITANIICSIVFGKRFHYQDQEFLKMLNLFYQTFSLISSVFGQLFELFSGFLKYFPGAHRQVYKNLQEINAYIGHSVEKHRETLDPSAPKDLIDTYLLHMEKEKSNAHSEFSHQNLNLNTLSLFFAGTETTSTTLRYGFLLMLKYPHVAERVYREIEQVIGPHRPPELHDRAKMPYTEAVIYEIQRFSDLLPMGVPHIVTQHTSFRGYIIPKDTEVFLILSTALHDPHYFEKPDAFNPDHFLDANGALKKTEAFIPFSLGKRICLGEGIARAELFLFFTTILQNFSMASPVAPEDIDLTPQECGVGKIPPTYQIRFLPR
Protocol: (§1) In this study, phenacetin (100 μM), coumarin (100 μM), bupropion (100 μM), paclitaxel (60 μM), tolbutamide (200 μM), mephenytoin (100 μM), chlorzoxazone (200 μM) and nifedipine (40 μM) have been used as the probe substrates for CYP1A2, 2A6, 2B6, 2C8, 2C9, 2C19, 2E1 and 3A4, respectively.

[2] = target: CYP2C19 (Homo sapiens, UniProt P33261); assay: Inhibition of recombinant CYP2C19 (probe mephenytoin); conditions: recombinant isozyme; mean ± SD of triplicate; unit not given (IC50 classes in μM); read-out: IC50 towards CYP2C19
Protocol: as §1

[3] = target: CYP3A4 (Homo sapiens, UniProt P08684); assay: Inhibition of recombinant CYP3A4 (probe nifedipine); conditions: recombinant isozyme; mean ± SD of triplicate; unit not given (IC50 classes in μM); read-out: IC50 towards CYP3A4
Protocol: as §1

[4] = Stability tests of analytes in rat plasma QC samples; conditions: rat plasma
Protocol: […] The dilution integrity was investigated by analyzing six replicate samples with each analyte, and each analyte were diluted 10-fold with blank rat matrix. Furthermore, the diluted samples were analyzed using freshly prepared calibration curve to calculate RE and RSD, which should be no more than ± 15% as criterion.

[5] = target: T2, UGT1A1 (Homo sapiens, UniProt P22309); assay: Inhibition of expressed UGT1A1 (probe β-estradiol); conditions: recombinant isozyme; mean ± SD of triplicate; unit not given (IC50 classes in μM); read-out: IC50 towards UGT1A1
T2 sequence (P22309 26-533): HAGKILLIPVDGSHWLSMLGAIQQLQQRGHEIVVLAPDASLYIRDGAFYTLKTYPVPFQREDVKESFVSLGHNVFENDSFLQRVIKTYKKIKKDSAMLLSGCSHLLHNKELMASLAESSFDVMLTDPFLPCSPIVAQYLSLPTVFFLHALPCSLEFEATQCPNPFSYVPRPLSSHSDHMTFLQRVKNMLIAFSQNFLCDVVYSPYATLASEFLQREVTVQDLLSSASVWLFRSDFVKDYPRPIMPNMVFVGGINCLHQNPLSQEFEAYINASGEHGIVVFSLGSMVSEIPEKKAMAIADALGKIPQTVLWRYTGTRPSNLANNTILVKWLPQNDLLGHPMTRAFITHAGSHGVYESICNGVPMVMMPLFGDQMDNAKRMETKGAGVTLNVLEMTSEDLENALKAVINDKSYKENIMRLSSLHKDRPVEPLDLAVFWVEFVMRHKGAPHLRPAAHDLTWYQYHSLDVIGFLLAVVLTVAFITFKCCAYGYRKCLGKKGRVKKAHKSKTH
Protocol: After centrifugation (13,800g, 10 min), the supernatant (8 μL) was obtained for determination by UHPLC system.
Similarly, β-estradiol (60 μM), propofol (40 μM) and 4-MU (350 μM) were typically used as the substrates for UGT1A1, 1A9 and 2B7, respectively. After optimization of incubation conditions (Additional file 1: Fig. S2), the protein concentrations for UGT1A1, 1A9, and 2B7 were 0.125, 0.05, and 0.05 mg/mL, respectively.

[6] = target: T3, CYP1A2 (Homo sapiens, UniProt P05177); assay: Inhibition of recombinant CYP1A2 (probe phenacetin); conditions: recombinant isozyme; mean ± SD of triplicate; unit not given (IC50 classes in μM); read-out: IC50 towards CYP1A2
T3 construct: purchased Corning Biosciences 456203
T3 sequence (P05177 1-516): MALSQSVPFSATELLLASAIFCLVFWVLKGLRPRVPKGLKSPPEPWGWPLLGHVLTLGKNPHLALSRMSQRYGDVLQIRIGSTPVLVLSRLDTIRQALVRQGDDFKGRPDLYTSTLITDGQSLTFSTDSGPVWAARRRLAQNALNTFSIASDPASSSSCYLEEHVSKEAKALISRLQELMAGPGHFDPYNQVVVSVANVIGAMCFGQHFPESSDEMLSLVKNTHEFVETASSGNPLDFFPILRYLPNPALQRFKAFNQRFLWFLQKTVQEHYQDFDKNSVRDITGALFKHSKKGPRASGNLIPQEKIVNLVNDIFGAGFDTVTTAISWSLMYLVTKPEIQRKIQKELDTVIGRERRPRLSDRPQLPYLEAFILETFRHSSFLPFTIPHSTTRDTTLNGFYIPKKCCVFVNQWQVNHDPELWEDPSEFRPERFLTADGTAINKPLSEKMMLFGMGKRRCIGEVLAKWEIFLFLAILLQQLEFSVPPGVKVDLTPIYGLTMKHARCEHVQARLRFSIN
Protocol: as §1

[7] = target: CYP2C9 (Homo sapiens, UniProt P11712); assay: Inhibition of recombinant CYP2C9 (probe tolbutamide)
Protocol: as §1

Chain of CYP2C9 (P11712 whole entry): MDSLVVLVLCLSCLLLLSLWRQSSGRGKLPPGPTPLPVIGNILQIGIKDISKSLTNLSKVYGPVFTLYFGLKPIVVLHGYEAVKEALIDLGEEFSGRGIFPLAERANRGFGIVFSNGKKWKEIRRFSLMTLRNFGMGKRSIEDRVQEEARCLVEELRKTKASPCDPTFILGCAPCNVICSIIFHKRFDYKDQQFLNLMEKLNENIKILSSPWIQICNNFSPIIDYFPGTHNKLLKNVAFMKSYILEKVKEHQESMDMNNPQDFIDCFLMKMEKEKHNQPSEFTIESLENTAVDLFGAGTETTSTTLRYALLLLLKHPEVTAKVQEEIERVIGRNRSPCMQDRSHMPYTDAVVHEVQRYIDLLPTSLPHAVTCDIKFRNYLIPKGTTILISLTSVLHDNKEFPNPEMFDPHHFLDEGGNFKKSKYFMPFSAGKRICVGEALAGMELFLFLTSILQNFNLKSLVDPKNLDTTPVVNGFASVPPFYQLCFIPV
Chain of CYP3A4 (P08684 whole entry): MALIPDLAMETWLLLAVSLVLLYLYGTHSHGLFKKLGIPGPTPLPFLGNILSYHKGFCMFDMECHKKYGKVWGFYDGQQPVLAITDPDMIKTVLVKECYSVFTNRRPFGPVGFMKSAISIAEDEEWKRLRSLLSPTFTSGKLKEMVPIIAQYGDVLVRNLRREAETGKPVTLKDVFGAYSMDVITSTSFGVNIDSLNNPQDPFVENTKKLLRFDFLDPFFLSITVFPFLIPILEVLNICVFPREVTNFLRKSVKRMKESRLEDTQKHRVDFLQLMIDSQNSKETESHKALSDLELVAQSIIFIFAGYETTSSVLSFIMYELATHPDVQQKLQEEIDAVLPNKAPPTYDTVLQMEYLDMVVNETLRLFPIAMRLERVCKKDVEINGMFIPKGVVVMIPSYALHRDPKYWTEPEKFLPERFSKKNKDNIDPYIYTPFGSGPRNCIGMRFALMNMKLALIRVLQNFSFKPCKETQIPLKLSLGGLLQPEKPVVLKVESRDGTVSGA
Chain of CYP2C19 (P33261 whole entry): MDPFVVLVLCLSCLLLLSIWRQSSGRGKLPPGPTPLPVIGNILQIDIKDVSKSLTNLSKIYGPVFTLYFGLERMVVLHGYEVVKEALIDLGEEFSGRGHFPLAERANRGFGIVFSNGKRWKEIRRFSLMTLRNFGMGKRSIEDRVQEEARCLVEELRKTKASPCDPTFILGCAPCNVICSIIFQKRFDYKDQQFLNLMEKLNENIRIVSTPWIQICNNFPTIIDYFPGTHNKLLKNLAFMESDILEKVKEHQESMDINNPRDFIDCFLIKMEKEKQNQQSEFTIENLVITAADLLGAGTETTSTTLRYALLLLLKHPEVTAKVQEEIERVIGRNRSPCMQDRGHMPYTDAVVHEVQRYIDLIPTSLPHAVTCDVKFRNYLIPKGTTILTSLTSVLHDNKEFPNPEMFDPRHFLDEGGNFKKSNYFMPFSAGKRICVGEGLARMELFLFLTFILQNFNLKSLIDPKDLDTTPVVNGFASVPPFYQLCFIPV

Compound: CC(C)(O)[C@@H]1CC[C@](C)([C@H]2[C@@H](O)C[C@@]3(C)[C@@H]4C[C@H](O[C@@H]5O[C@H](CO)[C@@H](O)[C@H](O)[C@H]5O)[C@H]5C(C)(C)[C@@H](O[C@@H]6OC[C@@H](O)[C@H](O)[C@H]6O)CC[C@@]56C[C@@]46CC[C@]23C)O1 [Compound B2, Astragaloside IV]
- IC50 [1]: > 100 µM
- IC50 [2]: > 100 µM
- IC50 [3]: > 100 µM
- At -80 °C for 48 h, Mean±SD ([4]; nominal conc. 80 nM): 87.06 ± 0.84 nM
- At -80 °C for 48 h, RE ([4]; nominal conc. 80 nM): 9.91%
- Extracted samples at 8 °C for 18 h, Mean±SD ([4]; nominal conc. 80 nM): 80.76 ± 10.01 nM
- Extracted samples at 8 °C for 18 h, RE ([4]; nominal conc. 80 nM): -13.07%
- Short-term stability at room temperature for 6 h, Mean±SD ([4]; nominal conc. 80 nM): 82.35 ± 9.84 nM
- Short-term stability at room temperature for 6 h, RE ([4]; nominal conc. 80 nM): -11.26%
- Three freeze-thaw cycles (-80 °C ↔ 23 °C), Mean±SD ([4]; nominal conc. 80 nM): 88.56 ± 1.31 nM
- Three freeze-thaw cycles (-80 °C ↔ 23 °C), RE ([4]; nominal conc. 80 nM): 12.35%
- At -80 °C for 48 h, Mean±SD ([4]; nominal conc. 400 nM): 378.90 ± 6.78 nM
- At -80 °C for 48 h, RE ([4]; nominal conc. 400 nM): -7.16%
- Extracted samples at 8 °C for 18 h, Mean±SD ([4]; nominal conc. 400 nM): 376.72 ± 29.81 nM
- Extracted samples at 8 °C for 18 h, RE ([4]; nominal conc. 400 nM): -10.44%
- Short-term stability at room temperature for 6 h, Mean±SD ([4]; nominal conc. 400 nM): 361.42 ± 15.40 nM
- Short-term stability at room temperature for 6 h, RE ([4]; nominal conc. 400 nM): -13.36%
- Three freeze-thaw cycles (-80 °C ↔ 23 °C), Mean±SD ([4]; nominal conc. 400 nM): 385.93 ± 32.19 nM
- Three freeze-thaw cycles (-80 °C ↔ 23 °C), RE ([4]; nominal conc. 400 nM): -12.56%
- At -80 °C for 48 h, Mean±SD ([4]; nominal conc. 1600 nM): 1507.16 ± 152.79 nM
- At -80 °C for 48 h, RE ([4]; nominal conc. 1600 nM): -12.08%
- Extracted samples at 8 °C for 18 h, Mean±SD ([4]; nominal conc. 1600 nM): 1574.79 ± 151.38 nM
- Extracted samples at 8 °C for 18 h, RE ([4]; nominal conc. 1600 nM): -11.93%
- Short-term stability at room temperature for 6 h, Mean±SD ([4]; nominal conc. 1600 nM): 1463.38 ± 60.14 nM
- Short-term stability at room temperature for 6 h, RE ([4]; nominal conc. 1600 nM): -11.64%
- Three freeze-thaw cycles (-80 °C ↔ 23 °C), Mean±SD ([4]; nominal conc. 1600 nM): 1434.32 ± 47.18 nM
- Three freeze-thaw cycles (-80 °C ↔ 23 °C), RE ([4]; nominal conc. 1600 nM): -13.10%
- IC50 [5]: > 100 µM
- IC50 [6]: > 100 µM
- inhibition type (smallest AIC and SC) ([7]; CYP2C9): Noncompetitive inhibition
- Ki ([7]; CYP2C9, competitive model): 17.4 ± 3.7 µM
- Ki ([7]; CYP2C9, mixed-type model): 45 ± 16.6 µM
- α ([7]; CYP2C9, mixed-type model): 1.5 ± 1.0
- Ki ([7]; CYP2C9, noncompetitive model): 55.8 ± 5.3 µM
- Cmax/Ki ([I]/Ki) ([7]; CYP2C9, selected model, rat plasma Cmax): 0.04
- IC50 ([7]; tolbutamide 200 μM, read-out: IC50 towards CYP2C9): 65 µM

Reference: PMC7339578, “Multiple circulating alkaloids and saponins from intravenous Kang-Ai injection inhibit human cytochrome P450 and UDP-glucuronosyltransferase isozymes: potential drug–drug interactions” (Chinese Medicine, 2020)
